Source: paper PMC9259545, “Impact of poly-arginine peptides R18D and R18 on alteplase and tenecteplase thrombolysis in vitro, and neuroprotective stability to proteolysis” (Journal of Thrombosis and Thrombolysis, 2022)
No end group written: not given here.

Assays:
[1] = target: T1, tPA (Homo sapiens, UniProt P00750); settings: cited from earlier work
T1 construct: purchased Boehringer Ingelheim, Germany 10 mg vial
Text: (§1) A potential mechanism that could negatively influence the neuroprotective efficacy of a peptide (and protein) neurotherapeutic when co-administered with a thrombolytic agent in ischaemic stroke is its proteolytic stability. For example, a peptide could be degraded directly by the proteolytic action of tPA and TNK, or indirectly by plasmin following its activation by tPA/TNK.

[2] = system: plasmin; settings: cited from earlier work
Text: Given the potential future application of the R18D, R18 and NA-1 peptides as ischaemic stroke neurotherapeutics, it is important to establish if they interfere with current and future standard of care treatments, namely alteplase (tPA; recombinant tissue plasminogen activator) and tenecteplase (TNK; a modified version of tPA) thrombolysis, which are routinely administered prior to thrombectomy. […] NA-1 is also degraded by plasmin [8]. Together, these findings confirm that peptides synthesised with D-enantiomer amino acids such as R18D, unlike peptides synthesised with L-enantiomer amino acids are highly resistant to proteolytic degradation and are likely to retain their neuroprotective efficacy ...

[3] = in the order; 8 (NA-1), unpublished data (R18D); cited from earlier work
Text: It is important to mention that the results obtained in this study are likely to overestimate any negative effects of R18D, R18 and NA-1 on tPA/TNK lag time and thrombolysis compared with what would occur clinically for several reasons. Firstly, positively charged peptides administered directly into the circulation would have a larger pool of negatively charged plasma proteins such as albumin to bind, and thus reduce any inhibitory electrostatic effects of the peptides on lag time and thrombolysis. In addition, the in vitro thrombolysis assay used in this study was performed in 27.5% plasma wh ...

[4] = target: T1, tPA; assay: Halo clot thrombolysis assay, tPA thrombolysis of whole blood clots; format: biochemical; settings: tPA 5 nM, 27.5% human plasma
Procedure: (§2) We utilised a high throughput 96-well plate thrombolysis assay (“halo clot assay”) based on the procedure developed by Bonnard et al.. To reduce assay components the halo thrombus formation procedure was modified by replacing the original thrombotic mixture consisting of recombinant tissue factor and synthetic phospholipids reconstituted in 30 mM calcium, with thrombin, and reducing the pro-thrombotic volume (i.e., thrombin) from 5 to 3 µL and blood volume from 25 to 12 µL. Another modification to simplify clot formation consisted of adding the thrombin (3 µL; 500 nM in saline) to one side of the well and 12 µL of blood to the opposite side of well, before using a heat stretched Pasteur pipette with sealed end to mix the two liquids together using 4 to 5 circular motions around the edge of the well (halo clot). The original methodology involved adding the 5 μL of the clotting mixture to the edge of the well, and then using a micropipette to slowly release the 25 μL of blood to the edge of the well while at the same time maintaining a circular motion. Plates were incubated in a humidified 37 °C incubator for 1 h before use in the thrombolysis assay.
(§3) The thrombolysis assay involved adding 30 µL of Tris buffer (50 mM Tris–HCl, 100 mM NaCl, pH 7.4) with or without peptide followed by 55 µL Tris buffer containing tPA or TNK (5 nM final concentration) and 50% human plasma (final plasma concentration during thrombolysis 27.5%). The final concentration of peptide during thrombolysis ranged from 0.25 to 16 µM (note: an intravenous dose of R18D at 350 nmol/kg, which is likely to be neuroprotective achieves a Cmax of 0.7–0.9 µM in healthy male and female rats; unpublished observation). […] Following the addition of tPA or TNK into the wells, clot lysis was monitored over a 1-h period at 37 °C using a plate reader (Cytation5, BioTek, USA) by measuring absorbance at 510 nm every 1 min immediately after orbital shaking (205 rpm for 5 s). Controls consisted of wells with no thrombin (100% clot lysis; L100%) and wells with no tPA or TNK (0% clot lysis; L0%). At the 1-h time point, the percentage of thrombolysis (%T) in tPA or TNK treated samples (LTX) was calculated by transforming absorbance values based on the formula: % T = (LTX) − (L0%)/(L100%) − (L0%) × 100. In addition, during the 1-h period of clot lysis lag time and maximal activity (also known as maximum velocity or Vmax) of the thrombolysis reaction were calculated. The lag time is defined as the time interval between the first absorbance reading (time = 0) and the line of maximum slope of the thrombolysis reaction. The maximal activity is calculated from the maximum slope over the time course of the assay and reflects the capacity of an enzyme to catalyse a reaction (i.e., thrombolysis), with higher values representing higher catalytic activity (i.e., tPA/TNK induced plasmin thrombolysis).
(§4) For each thrombolysis assay, replicates for control wells (L0% and L100%) and tPA or TNK only treated wells consisted of n = 4–8. Replicates for tPA or TNK and peptide treated wells consisted of n = 4. For data analysis and graphical representations of the results, data from three independent thrombolytic assays were pooled. Studies consisted of R18D, R18 and NA-1 examined at the 0.5, 1, 2, 4, 8 or 16 µM concentrations performed concurrently on the same 96-well plate, in respective order. In addition, since R18D is known to be resistant to plasmin degradation and appeared to have the most impact on tPA or TNK thrombolysis, a separate set of three independent assays were performed for this peptide alone at concentrations of 0.25, 0.5, 1, 2, 4, 8 or 16 µM. Furthermore, the second dose study with R18D provided the opportunity to include a lower concentration (0.25 µM) of the peptide and to provide comparative data when only one peptide was examined in the thrombolysis assay per 96-well plate as opposed to examining the three peptides concurrently on the same plate. […]

[5] = target: T1, tPA; assay: Neuroprotective proteolytic stability after pre-incubation with tPA (glutamic acid excitotoxicity model, MTS); format: in vitro ADME; settings: 1 or 2 h or overnight (22-24 h)
Procedure: (§5) Neuronal cultures were maintained in CO2 incubator.
(§6) tPA (1000 µg/mL) or TNK (5000 µg/mL) resuspended in water (Baxter) were used to prepare 10 µg/mL (170 nM; note this is 34 times the concentration used in thrombolysis assay) stocks in MEM/2% B27 supplement (MEM/B27).
(§7) All data are presented as mean ± standard deviation (SD).

[6] = target: T2, TNK (Homo sapiens, UniProt P00750, H332A/K331A/N152Q/R333A/R334A/T138N); assay: Neuroprotective proteolytic stability after pre-incubation with TNK (glutamic acid excitotoxicity model, MTS); format: in vitro ADME; settings: 1 or 2 h or overnight (22-24 h)
T2 construct: purchased Boehringer Ingelheim 50 mg vial
T2 sequence (P00750 36-562 T138N/N152Q/K331A/H332A/R333A/R334A): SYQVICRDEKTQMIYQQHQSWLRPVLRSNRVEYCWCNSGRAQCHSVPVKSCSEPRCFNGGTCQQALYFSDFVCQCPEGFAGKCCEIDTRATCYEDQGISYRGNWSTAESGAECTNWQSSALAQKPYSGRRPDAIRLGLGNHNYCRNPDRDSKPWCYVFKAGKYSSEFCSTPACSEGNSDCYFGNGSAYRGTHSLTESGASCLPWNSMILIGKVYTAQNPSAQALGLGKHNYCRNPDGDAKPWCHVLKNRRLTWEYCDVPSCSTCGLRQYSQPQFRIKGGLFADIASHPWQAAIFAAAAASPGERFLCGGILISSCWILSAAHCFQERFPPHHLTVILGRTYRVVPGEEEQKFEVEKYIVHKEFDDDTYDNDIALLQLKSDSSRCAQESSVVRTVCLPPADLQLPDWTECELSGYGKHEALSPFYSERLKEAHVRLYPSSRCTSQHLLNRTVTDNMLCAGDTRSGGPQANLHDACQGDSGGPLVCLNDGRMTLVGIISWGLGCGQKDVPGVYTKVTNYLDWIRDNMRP
Procedure: as §5, §6, §7

[7] = system: tPA or TNK; format: biochemical, human
Procedure: as §2, §3
For each thrombolysis assay, replicates for control wells (L0% and L100%) and tPA or TNK only treated wells consisted of n = 4–8. Replicates for tPA or TNK and peptide treated wells consisted of n = 4. For data analysis and graphical representations of the results, data from three independent thrombolytic assays were pooled. Studies consisted of R18D, R18 and NA-1 examined at the 0.5, 1, 2, 4, 8 or 16 µM concentrations performed concurrently on the same 96-well plate, in respective order. […]

[8] = target: T2, TNK; assay: Halo clot thrombolysis assay, TNK thrombolysis of whole blood clots; format: biochemical; settings: concurrent study, TNK 5 nM, 27.5% human plasma
Procedure: as §2, §3, §4

[9] = target: trypsin (TrypLE Express) (Fusarium oxysporum, UniProt P35049); settings: inferred from neuroprotection; peptide 2 µM, 50% TrypLE Express, 1 or 2 h or overnight (22-24 h)
Chain of trypsin (TrypLE Express) (P35049 25-248): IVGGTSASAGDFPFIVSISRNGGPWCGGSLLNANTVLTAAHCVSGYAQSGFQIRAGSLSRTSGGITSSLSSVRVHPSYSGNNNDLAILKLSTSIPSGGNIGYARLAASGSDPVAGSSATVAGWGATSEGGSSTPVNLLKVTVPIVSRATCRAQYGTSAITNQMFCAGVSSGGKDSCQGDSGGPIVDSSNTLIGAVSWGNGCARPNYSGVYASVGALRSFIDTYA
Procedure: Rat primary cortical cultures were established from embryonic day 18–19 Sprague–Dawley rats (Animal Resources Centre, WA, Australia). Briefly, cortical tissue was dissociated in 2 mL Hanks balanced salt solution (HBBS; Life Technologies, Australia) supplemented with 1.3 mM L-cysteine, 10 U/mL papain (Sigma-Aldrich, Australia) and 50 U/mL DNase (Sigma-Aldrich) by trituration with a fire-polished pipette. Dissociated neurons were transferred to a 15-mL tube containing 13 mL of cold Dulbecco’s modified Eagle’s medium (DMEM; Life Technologies)/10% horse serum (Life Technologies) and centrifuged for 4 min at 300×g. Neurons were gently resuspended in 1.5 mL of cold Neurobasal (NB; Life Technologies)/2% B27 supplement (B27; Life Technologies) and the neuronal cell concentration adjusted to 50,000 neurons/70 μL and 70 μL inoculated into each well of a 96-well microtiter plate (Nunc, USA) pre-treated wells. Pre-treated wells were coated with 50 μL of poly-D-lysine (50 μg/mL; 70–150 K; Sigma-Aldrich) for 2–3 h at room temperature before being replaced with 50 μL of NB/B27, 4% fetal bovine serum (Life Technologies), 1% horse serum, 62.5 μM glutamic acid, 25 μM 2-mercaptoethanol, 30 μg/mL penicillin and 50 μg/mL streptomycin and placed in a CO2 incubator (5% CO2, 95% air balance, 98% humidity, 37 °C) prior to seeding with neurons. Neuronal cultures were maintained in CO2 incubator. On day in vitro four, 60 µL fresh NB/B27 containing the mitotic inhibitor cytosine arabinofuranoside (final concentration 0.15 μM; Sigma-Aldrich) was added and neuronal culture were used on day in vitro 11 to 13.
As an alternative to trypsin, TrypLE Express (Thermo Fischer Scientific, Australia) a synthetic serine protease with trypsin-like activity was used. […] Hereafter, TrypLE Express is referred to as trypsin.
Trypsin solution was added to an equal volume of MEM/2% B27 (T:MEM/B27). […] Following the incubation, 50 µL of the T:MEM/B27 or HBSS:MEM/B27 peptide solution was used to treat neuronal culture as described below for the glutamic acid excitotoxicity model. […]

[10] = human, in vivo, 0.5 mg/kg; cited from earlier work
Text: as §1

[11] = system: whole blood halo clot; assay: Halo assay dose response study of tPA and TNK; format: biochemical, human; settings: 5 nM tPA or TNK, halo assay dose response study (Supplementary Fig. 1; assay performed without added plasma), N = 4
Procedure: We utilised a high throughput 96-well plate thrombolysis assay (“halo clot assay”) based on the procedure developed by Bonnard et al.. To reduce assay components the halo thrombus formation procedure was modified by replacing the original thrombotic mixture consisting of recombinant tissue factor and synthetic phospholipids reconstituted in 30 mM calcium, with thrombin, and reducing the pro-thrombotic volume (i.e., thrombin) from 5 to 3 µL and blood volume from 25 to 12 µL. […]
The thrombolysis assay involved adding 30 µL of Tris buffer (50 mM Tris–HCl, 100 mM NaCl, […] during thrombolysis 27.5%). […] Following the addition of tPA or TNK into the wells, clot lysis was monitored over a 1-h period at 37 °C using a plate reader (Cytation5, BioTek, USA) by measuring absorbance at 510 nm every 1 min immediately after orbital shaking (205 rpm for 5 s). […] At the 1-h time point, the percentage of thrombolysis (%T) in tPA or TNK treated samples (LTX) was calculated by transforming absorbance values based on the formula: % T = (LTX) − (L0%)/(L100%) − (L0%) × 100. In addition, during the 1-h period of clot lysis lag time and maximal activity (also known as maximum velocity or Vmax) of the thrombolysis reaction were calculated. The lag time is defined as the time interval between the first absorbance reading (time = 0) and the line of maximum slope of the thrombolysis reaction. […]

T1 sequence (P00750 36-562): as the sequence (P00750 36-562 T138N/N152Q/K331A/H332A/R333A/R334A) above, with N103T, Q117N, A296K, A297H, A298R, A299R counted along it

Substance | Degradation when incubated with tPA [1] | Sensitivity to proteolytic degradation by plasmin [2] | In vivo peak plasma concentration [3] | Plasma half-life [3] | Effect on tPA lag time vs tPA control ([4]; concurrent study, 0.5-16 µM peptide) | Increase in tPA thrombolysis maximal activity ([4]; peptide 16 µM, concurrent study, 37 °C) | Effect on percentage tPA thrombolysis at 1 h vs tPA control ([4]; three peptides concurrently on the same plate, 0.5-16 µM peptide, Tris pH 7.4, 37 °C, 1 h, absorbance 510 nm, three independent assays pooled, n = 4, Dunnett's test) | Resistance to degradation by tPA ([5]; inferred from retained neuroprotection, peptide 2 µM, tPA 170 nM) | Neuroprotective efficacy after incubation with tPA ([5]; peptide 2 µM in MEM/B27 with tPA 10 µg/mL (170 nM), 37 °C CO2 incubator, then rat cortical neurons, glutamic acid 100 µM 5 min, MTS viability at 20-24 h, N = 4-8) | Resistance to degradation by TNK ([6]; inferred from retained neuroprotection, peptide 2 µM, TNK 170 nM) | Neuroprotective efficacy after incubation with TNK ([6]; peptide 2 µM in MEM/B27 with TNK 10 µg/mL (170 nM), 37 °C CO2 incubator, then rat cortical neurons, glutamic acid 100 µM 5 min, MTS viability at 20-24 h, N = 4-8) | Increase in lag time (time to the commencement of thrombolysis) ([7]; range over peptide concentrations 0.25-16 µM and both thrombolytics, 1-h assay) | Effect on maximal activity of the thrombolysis reaction ([7]; summary in abstract) | Effect on TNK thrombolysis maximal activity vs TNK control ([8]; 0.5-16 µM peptide) | Effect on percentage TNK thrombolysis at 1 h vs TNK control ([8]; 0.5-16 µM peptide, 37 °C, 1 h) | Increase in TNK lag time ([8]; peptide 8 µM, 37 °C) | Neuroprotective properties in the glutamic acid excitotoxicity injury model when pre-incubated with plasmin [2] | Resistance to degradation by trypsin [9] | Serum concentration [10] | Clot lysis after 1-h [11]
YGRKKRRQRRRKLSSIESDV [NA-1, reference compound] | is not degraded | sensitive | 1 to 5 µM | 5 to 15 min |  |  |  |  |  |  |  |  |  |  |  |  |  |  |  | 
RRRRRRRRRRRRRRRRRR [R18] |  | sensitive |  |  | did not significantly increase tPA lag time | 48.36% | did not significantly inhibit thrombolysis | resistant to degradation | a similar and a high level of neuroprotective efficacy | resistant to degradation | a similar and a high level of neuroprotective efficacy | 0 to 5.53 min | appeared to increase the maximal activity | did not significantly impact TNK thrombolysis maximal activity | did not significantly inhibit TNK thrombolysis | 5.53 min | not | only R18D is resistant |  | 
tPA: recombinant tissue plasminogen activator |  |  |  |  |  |  |  |  |  |  |  |  |  |  |  |  |  |  | ≤ 30 nM | approximately 90%
